Data from ChEMBL document CHEMBL3885881, “DrugMatrix”.

Species: Rattus norvegicus
Assay: DrugMatrix - Regimen: Daily Repeat
Type: toxicity, organism-based, Sprague-Dawley
Parameters: regimen Daily Repeat, gender Male, age 6-8 weeks
Details: in vivo, iv, vehicle 100 % SALINE; for ABSOLUTE BASOPHIL / ABSOLUTE EOSINOPHIL / ABSOLUTE LYMPHOCYTE / ABSOLUTE MONOCYTE / ABSOLUTE SEGMENTED NEUTROPHIL / BASOPHIL / EOSINOPHIL / ERYTHROCYTE COUNT / HEMATOCRIT / HEMOGLOBIN / LEUKOCYTE COUNT / LYMPHOCYTE / MEAN CORPUSCULAR HEMOGLOBIN / MEAN CORPUSCULAR HEMOGLOBIN CONCENTRATION / MEAN CORPUSCULAR VOLUME / MONOCYTE / NEUTROPHIL / NUCLEATED RED BLOOD CELLS / PLATELET COUNT: tissue Blood; for ALANINE AMINOTRANSFERASE / ALBUMIN / ALKALINE PHOSPHATASE / ASPARTATE AMINOTRANSFERASE / BLOOD UREA NITROGEN / CARBON DIOXIDE / CHLORIDE / CHOLESTEROL / CREATINE PHOSPHOKINASE / CREATININE / GLUCOSE / LACTATE DEHYDROGENASE / LIPASE / PHOSPHORUS / POTASSIUM / SODIUM / TOTAL BILIRUBIN / TOTAL PROTEIN / URIC ACID: tissue Plasma
[1] = 0 mg/kg, 72 h, dose level Control, time 3 day
[2] = 0 mg/kg, 120 h, dose level Control, time 5 day
[3] = 12 mg/kg, 72 h, dose level High, time 3 day

Cc1c(N)nc([C@H](CC(N)=O)NC[C@H](N)C(N)=O)nc1C(=O)N[C@H](C(=O)N[C@H](C)[C@@H](O)[C@H](C)C(=O)N[C@H](C(=O)NCCc1nc(-c2nc(C(=O)NCCC[S+](C)C)cs2)cs1)[C@@H](C)O)[C@@H](O[C@@H]1O[C@@H](CO)[C@@H](O)[C@H](O)[C@@H]1O[C@H]1O[C@H](CO)[C@@H](O)[C@H](OC(N)=O)[C@@H]1O)c1c[nH]cn1.[Br-] [BLEOMYCIN A2]
ABSOLUTE BASOPHIL [1]: 0 CELLS/uL
ABSOLUTE EOSINOPHIL [1]: 33.67 CELLS/uL
ABSOLUTE LYMPHOCYTE [1]: 12123.5 CELLS/uL
ABSOLUTE MONOCYTE [1]: 243.5 CELLS/uL
ABSOLUTE SEGMENTED NEUTROPHIL [1]: 1282.67 CELLS/uL
BASOPHIL [1]: 0%
EOSINOPHIL [1]: 0.33%
ERYTHROCYTE COUNT [1]: 5.18 x10E6/uL
HEMATOCRIT [1]: 32.63%
HEMOGLOBIN [1]: 12.87 G/DL
LEUKOCYTE COUNT [1]: 13.68 x10E3/uL
LYMPHOCYTE [1]: 88.67%
MEAN CORPUSCULAR HEMOGLOBIN [1]: 24.98 pg
MEAN CORPUSCULAR HEMOGLOBIN CONCENTRATION [1]: 39.48 G/DL
MEAN CORPUSCULAR VOLUME [1]: 63.23 fL
MONOCYTE [1]: 1.83%
NEUTROPHIL [1]: 9.17%
NUCLEATED RED BLOOD CELLS [1]: 0.17 /100WBC
PLATELET COUNT [1]: 1114.5 x10E3/uL
ALANINE AMINOTRANSFERASE [1]: 46.17 u/L
ALBUMIN [1]: 4.15 G/DL
ALKALINE PHOSPHATASE [1]: 374.67 u/L
ASPARTATE AMINOTRANSFERASE [1]: 89.33 u/L
BLOOD UREA NITROGEN [1]: 14.83 mg/dL
CARBON DIOXIDE [1]: 25.67 mmol/L
CHLORIDE [1]: 101.17 MEQ/L
CHOLESTEROL [1]: 63.5 mg/dL
CREATINE PHOSPHOKINASE [1]: 494.67 u/L
CREATININE [1]: 0.17 mg/dL
GLUCOSE [1]: 163 mg/dL
LACTATE DEHYDROGENASE [1]: 269.33 u/L
LIPASE [1]: 10.67 u/L
PHOSPHORUS [1]: 11.27 mg/dL
POTASSIUM [1]: 5.85 MEQ/L
SODIUM [1]: 141.68 MEQ/L
TOTAL BILIRUBIN [1]: 0.18 mg/dL
TOTAL PROTEIN [1]: 5.87 G/DL
URIC ACID [1]: 1.28 mg/dL
ABSOLUTE BASOPHIL [2]: 0 CELLS/uL
ABSOLUTE EOSINOPHIL [2]: 24.67 CELLS/uL
ABSOLUTE LYMPHOCYTE [2]: 11832.83 CELLS/uL
ABSOLUTE MONOCYTE [2]: 279.67 CELLS/uL
ABSOLUTE SEGMENTED NEUTROPHIL [2]: 1446.17 CELLS/uL
BASOPHIL [2]: 0%
EOSINOPHIL [2]: 0.17%
ERYTHROCYTE COUNT [2]: 5.61 x10E6/uL
HEMATOCRIT [2]: 35.02%
HEMOGLOBIN [2]: 13.82 G/DL
LEUKOCYTE COUNT [2]: 13.58 x10E3/uL
LYMPHOCYTE [2]: 87.67%
MEAN CORPUSCULAR HEMOGLOBIN [2]: 24.68 pg
MEAN CORPUSCULAR HEMOGLOBIN CONCENTRATION [2]: 39.5 G/DL
MEAN CORPUSCULAR VOLUME [2]: 62.42 fL
MONOCYTE [2]: 2%
NEUTROPHIL [2]: 10.17%
NUCLEATED RED BLOOD CELLS [2]: 0 /100WBC
PLATELET COUNT [2]: 1178.17 x10E3/uL
ALANINE AMINOTRANSFERASE [2]: 52.83 u/L
ALBUMIN [2]: 4.12 G/DL
ALKALINE PHOSPHATASE [2]: 370 u/L
ASPARTATE AMINOTRANSFERASE [2]: 100.5 u/L
BLOOD UREA NITROGEN [2]: 15.17 mg/dL
CARBON DIOXIDE [2]: 28.83 mmol/L
CHLORIDE [2]: 101 MEQ/L
CHOLESTEROL [2]: 69.5 mg/dL
CREATINE PHOSPHOKINASE [2]: 488.67 u/L
CREATININE [2]: 0.23 mg/dL
GLUCOSE [2]: 165 mg/dL
LACTATE DEHYDROGENASE [2]: 502.17 u/L
LIPASE [2]: 11 u/L
PHOSPHORUS [2]: 11.7 mg/dL
POTASSIUM [2]: 5.85 MEQ/L
SODIUM [2]: 142.45 MEQ/L
TOTAL BILIRUBIN [2]: 0.18 mg/dL
TOTAL PROTEIN [2]: 5.85 G/DL
URIC ACID [2]: 1.43 mg/dL
ABSOLUTE BASOPHIL [3]: 0 CELLS/uL
ABSOLUTE EOSINOPHIL [3]: 0 CELLS/uL
ABSOLUTE LYMPHOCYTE [3]: 10537 CELLS/uL
ABSOLUTE MONOCYTE [3]: 346.67 CELLS/uL
ABSOLUTE SEGMENTED NEUTROPHIL [3]: 2083 CELLS/uL
BASOPHIL [3]: 0%
EOSINOPHIL [3]: 0%
ERYTHROCYTE COUNT [3]: 6.18 x10E6/uL
HEMATOCRIT [3]: 38.57%
HEMOGLOBIN [3]: 15.13 G/DL
LEUKOCYTE COUNT [3]: 12.97 x10E3/uL
LYMPHOCYTE [3]: 81.67%
MEAN CORPUSCULAR HEMOGLOBIN [3]: 24.5 pg
MEAN CORPUSCULAR HEMOGLOBIN CONCENTRATION [3]: 39.23 G/DL
MEAN CORPUSCULAR VOLUME [3]: 62.37 fL
MONOCYTE [3]: 2.67%
NEUTROPHIL [3]: 15.67%
NUCLEATED RED BLOOD CELLS [3]: 0 /100WBC
PLATELET COUNT [3]: 1055.67 x10E3/uL
ALANINE AMINOTRANSFERASE [3]: 38 u/L
ALBUMIN [3]: 3.8 G/DL
ALKALINE PHOSPHATASE [3]: 233.67 u/L
ASPARTATE AMINOTRANSFERASE [3]: 110 u/L
BLOOD UREA NITROGEN [3]: 10.33 mg/dL
CARBON DIOXIDE [3]: 27.67 mmol/L
CHLORIDE [3]: 100.33 MEQ/L
CHOLESTEROL [3]: 56.33 mg/dL
CREATINE PHOSPHOKINASE [3]: 923.67 u/L
CREATININE [3]: 0.12 mg/dL
GLUCOSE [3]: 136.67 mg/dL
LACTATE DEHYDROGENASE [3]: 439.67 u/L
LIPASE [3]: 9.67 u/L
PHOSPHORUS [3]: 10.5 mg/dL
POTASSIUM [3]: 5.86 MEQ/L
SODIUM [3]: 140.77 MEQ/L
TOTAL BILIRUBIN [3]: 0.13 mg/dL
TOTAL PROTEIN [3]: 5.47 G/DL
URIC ACID [3]: 1.3 mg/dL
